In general, IC50 refers to the midpoint of a concentration-inhibition curve.

The source made the active and inactive calls. No rule for the calls is given here.

This assay addresses Microphthalmia-associated transcription factor (Homo sapiens) (UniProt O75030). Briefly: MITF inhibitors by FRET titration, dose response, biochemical, high throughput (AID 1259375).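 Also: FRET between CFP-tagged and YFP-tagged MITF protein partners.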 To be noted: FRET biochemical assay, MITF inhibition.

Chain of Microphthalmia-associated transcription factor (Homo sapiens) (O75030 whole entry, looked up): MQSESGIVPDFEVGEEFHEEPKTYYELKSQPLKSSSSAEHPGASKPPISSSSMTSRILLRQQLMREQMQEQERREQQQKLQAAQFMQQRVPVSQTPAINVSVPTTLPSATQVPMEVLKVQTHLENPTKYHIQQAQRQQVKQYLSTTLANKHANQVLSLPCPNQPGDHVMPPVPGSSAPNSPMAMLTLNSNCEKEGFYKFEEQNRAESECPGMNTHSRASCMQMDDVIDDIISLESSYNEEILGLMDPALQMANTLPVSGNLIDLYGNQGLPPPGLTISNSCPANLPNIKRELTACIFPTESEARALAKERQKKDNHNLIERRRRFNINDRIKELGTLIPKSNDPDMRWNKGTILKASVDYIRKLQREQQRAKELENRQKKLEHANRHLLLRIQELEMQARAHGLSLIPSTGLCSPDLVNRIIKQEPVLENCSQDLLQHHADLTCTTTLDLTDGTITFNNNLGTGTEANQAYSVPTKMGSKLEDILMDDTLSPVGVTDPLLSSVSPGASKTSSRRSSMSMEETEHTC

Consider `O=C(Nc1cc(S(=O)(=O)O)cc2cc(S(=O)(=O)O)cc(O)c12)c1ccccc1`, for which the IC50 was > 6.48 µM (inactive). For `O=C(O)C1CC=CCC1C(=O)Nc1nncs1` (configuration not stated), the IC50 was > 6.48 µM (inactive). For `CN(C)CCCNC(=O)c1cccc(CN(C(=O)c2nc3ccc(-c4cn[nH]c4)cc3s2)C2CC2)c1`, the IC50 was > 6.48 µM (inactive).

On to `CCN(CC)c1ccc(C(c2c(C)[nH][nH]c2=O)c2c(C)[nH][nH]c2=O)cc1`, for which the IC50 was 2.94 µM.

Consider `O=C(O)c1cc(-c2ccco2)nc2ccccc12`, for which the IC50 is > 7.59 µM (inactive). Next, `C/C(=N\Nc1ccc(S(=O)(=O)O)cc1)c1cccc(Br)c1`: > 6.48 µM (inactive). Consider `O=C1S/C(=C\c2ccco2)C(=O)N1c1ccccc1Cl`, for which the IC50 entry is “inactive”. With `CC(O)(CNCCN1CCOCC1)COc1ccc(Cl)cc1` (configuration not stated), the IC50 is > 6.31 µM (inactive). Next, `CCCCNCCOc1ccccc1OCC`: > 6.48 µM (inactive). On to `COc1cc(N2CCOCC2)ccc1Nc1cc(NC(C)(C)c2ccccc2)c(C(F)(F)F)cn1`, for which the IC50 is > 6.48 µM (inactive). In the case of `CN(C)[C@@H]1C(=O)C(C(=O)NCN2CCCC2)=C(O)[C@@]2(O)C(=O)C3=C(O)c4c(O)cccc4[C@@](C)(O)[C@H]3C[C@@H]12` it was > 6.48 µM (inactive); in that of `O=C1N[C@@H](Cc2c[nH]c3ccccc23)C(=O)N2CCN(C(=O)NC3CCCCC3)C[C@H]12`, > 6.48 µM (inactive); in that of `Nc1cc(Br)cnc1N`, > 8.62 µM (inactive).

Consider `O=C(Nc1ccc(N2CCOCC2)cc1)c1ccc2nc(-c3cccs3)sc2c1`, for which the IC50 was > 7.76 µM (inactive). Regarding `C[C@@H](OCc1ccccc1)[C@@H]1NC(=O)[C@H]2CN(C(=O)NC3CCCCC3)CCN2C1=O`, the IC50 was > 6.48 µM (inactive).

As for `CCOC(=O)Cc1[nH]nc2c1C1(C(=O)N(CC)c3ccccc31)C(C#N)=C(N)O2` (configuration not stated), the IC50 is > 6.48 µM (inactive). Next, `CCN(CC)C(=S)NC(=O)/C=C/c1ccco1`: > 6.48 µM (inactive); `Cc1cc2c(c(=O)[nH]1)C(=O)O/C2=C\c1ccc(C)o1`: > 6.86 µM (inactive); `O=C1N[C@@H](Cc2ccc(O)cc2)C(=O)N2CCN(C(=O)NC3CCCCC3)C[C@H]12`: > 6.48 µM (inactive).

With `CN(CCc1ccccn1)Cc1ccc(F)cc1`, the IC50 was > 6.59 µM (inactive). With `C[C@@H]1NC(=O)[C@H]2CN(C(=O)NC3CCCCC3)CCN2C1=O`, the IC50 was > 6.48 µM (inactive). Next, `O=C(/C=C/c1ccco1)Nc1c[nH]c(=O)[nH]c1=O`: > 6.48 µM (inactive); `O=C(/C=C/c1ccco1)NCC(=O)N/N=C/c1ccc(C(=O)O)cc1`: > 6.48 µM (inactive); `CC(=O)NS(=O)(=O)c1ccc(NC(=O)c2ccc([N+](=O)[O-])o2)cc1`: > 6.61 µM (inactive). Next, `C=C1c2c(Cl)ccc(O)c2C(O)=C2C(=O)[C@]3(O)C(O)=C(C(N)=O)C(=O)[C@@H](N(C)C)[C@@H]3[C@@H](O)[C@H]12`: 2.58 µM; `C=C1c2cccc(O)c2C(O)=C2C(=O)[C@]3(O)C(O)=C(C(N)=O)C(=O)[C@@H](N(C)C)[C@@H]3[C@@H](O)[C@H]12`: > 6.48 µM (inactive). In the case of `CC(C)[C@H]1NC(=O)[C@H]2CN(C(=O)NCc3ccccc3)CCN2C1=O` it was > 6.48 µM (inactive). For the compound `COC(=O)c1c(NC(=O)c2ccc([N+](=O)[O-])o2)sc(Cc2ccc3c(c2)OCO3)c1C`, the IC50 is > 6.42 µM (inactive). In the case of `CC[C@H](C)[C@@H]1NC(=O)[C@H]2CN(C(=O)NCc3ccccc3)CCN2C1=O` it was > 6.48 µM (inactive); in that of `Nc1ccc(O)c(C(=O)O)c1`, 2.52 µM. As for `Cc1ccc(COc2ccc(/C=N/N=C3\NC(=O)C(CC(=O)O)S3)cc2)cc1` (configuration not stated), the IC50 was > 6.48 µM (inactive).

`O=c1c(O)c(-c2ccc(O)cc2O)oc2cc(O)cc(O)c12`: the IC50 is > 6.48 µM (inactive).

These data come from PubChem BioAssay AID1259375 (The Scripps Research Institute Molecular Screening Center, 2018).
